Measured values published in ChEMBL document CHEMBL4680289, “10-(4-Phenylpiperazine-1-carbonyl)acridin-9(10H)-ones and related compounds: Synthesis, antiproliferative activity and inhibition of tubulin polymerization” (Bioorg Med Chem Lett, 2021).
Calls of active or inactive are those of the source. No cut-off for these calls is given here.

Columns and labels:
Assay type in all cases: functional
K562 [1] = assay: Induction of apoptosis in human K562 cells assessed as viable cells at 0.1 uM measured after 72 hrs by Annexin V-FITC/7-AAD staining based flow cytometric analysis relative to control; conditions: read-out: Activity
K562 [2] = assay: Induction of apoptosis in human K562 cells assessed as necrotic cells at 0.1 uM measured after 6 hrs by Annexin V-FITC/7-AAD staining based flow cytometric analysis relative to control
K562 [3] = assay: Induction of apoptosis in human K562 cells assessed as necrotic cells at 0.03 micromol/L measured after 48 hrs by Annexin V-FITC/7-AAD staining based flow cytometric analysis (reference value: 0.46 %); conditions: dose 0.03 µmol/L, at 0.03 µM
K562 [4] = assay: Induction of apoptosis in human K562 cells assessed as necrotic cells at 0.1 uM measured after 24 hrs by Annexin V-FITC/7-AAD staining based flow cytometric analysis relative to control
K562 [5] = assay: Induction of apoptosis in human K562 cells assessed as late apoptotic cells at 0.1 uM measured after 6 hrs by Annexin V-FITC/7-AAD staining based flow cytometric analysis relative to control
K562 [6] = assay: Induction of apoptosis in human K562 cells assessed as viable cells at 0.1 uM measured after 6 hrs by Annexin V-FITC/7-AAD staining based flow cytometric analysis relative to control; conditions: read-out: Activity
K562 [7] = assay: Induction of apoptosis in human K562 cells assessed as necrotic cells at 0.01 micromol/L measured after 48 hrs by Annexin V-FITC/7-AAD staining based flow cytometric analysis (reference value: 0.46 %); conditions: dose 0.01 µmol/L, at 0.01 µM
K562 [8] = assay: Induction of apoptosis in human K562 cells assessed as late apoptotic cells at 0.3 micromol/L measured after 48 hrs by Annexin V-FITC/7-AAD staining based flow cytometric analysis (reference value: 2.49 %); conditions: dose 0.3 µmol/L, at 0.3 µM
K562 [9] = assay: Induction of apoptosis in human K562 cells assessed as early apoptotic cells at 0.1 uM measured after 12 hrs by Annexin V-FITC/7-AAD staining based flow cytometric analysis relative to control
K562 [10] = assay: Induction of apoptosis in human K562 cells assessed as late apoptotic cells at 0.1 uM measured after 72 hrs by Annexin V-FITC/7-AAD staining based flow cytometric analysis relative to control
K562 [11] = assay: Induction of apoptosis in human K562 cells assessed as late apoptotic cells at 1 micromol/L measured after 48 hrs by Annexin V-FITC/7-AAD staining based flow cytometric analysis (reference value: 2.49 %); conditions: dose 1 µmol/L, at 1 µM
K562 [12] = assay: Induction of apoptosis in human K562 cells assessed as early apoptotic cells at 0.3 micromol/L measured after 48 hrs by Annexin V-FITC/7-AAD staining based flow cytometric analysis (reference value: 4.2 %); conditions: dose 0.3 µmol/L, at 0.3 µM
K562 [13] = assay: Cell cycle arrest in human K562 cells assessed as increase in cell accumulation at G2/M phase measured after 18 hrs by propidium iodide/RNase FACSCalibur staining based flow cytometry; conditions: dose 0.003-1 µmol/L
K562 [14] = assay: Cell cycle arrest in human K562 cells assessed as increase in cell accumulation at G2/M phase at < 30 nM measured after 18 hrs by propidium iodide/RNase FACSCalibur staining based flow cytometry; conditions: dose nM <30, time 18.0 hrs

## COc1cc(OC)cc(N2CCN(C(=O)n3c4ccccc4c(=O)c4ccccc43)CC2)c1
K562 [1]
  viability at 0.1 µM: 18.2%
K562 [2]
  Activity: 0.24%
K562 [3]
  Activity: 0.53%
K562 [4]
  Activity: 0.23%
K562 [5]
  Activity: 3.3%
K562 [6]
  viability at 0.1 µM: 91.6%
K562 [7]
  Activity: 0.27%
K562 [8]
  Activity: 32.32%
K562 [9]
  Activity: 9.02%
K562 [10]
  Activity: 65.69%
K562 [11]
  Activity: 31.22%
K562 [12]
  Activity: 24.76%
K562 [13]
  Activity: Dose-dependent effect
K562 [14]
  Activity: Active
